# Active and inactive are the calls of the source.
# Key:
# [1] = target: T1, Heat shock factor protein 1 (Mus musculus, UniProt P38532); test: inhibition of MG132-induced HSE-luciferase signal, confirmation, cell-based, NIH3T3, luminescence, dose retest (AID 2382); type: functional;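 note: NIH3T3 fibroblasts with HSF1-driven luciferase reporter stressed by proteasome inhibitor MG132; luminescence from HSF1-driven luciferase expression after 8 hours of MG132 stress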
# T1 sequence (P38532 whole entry): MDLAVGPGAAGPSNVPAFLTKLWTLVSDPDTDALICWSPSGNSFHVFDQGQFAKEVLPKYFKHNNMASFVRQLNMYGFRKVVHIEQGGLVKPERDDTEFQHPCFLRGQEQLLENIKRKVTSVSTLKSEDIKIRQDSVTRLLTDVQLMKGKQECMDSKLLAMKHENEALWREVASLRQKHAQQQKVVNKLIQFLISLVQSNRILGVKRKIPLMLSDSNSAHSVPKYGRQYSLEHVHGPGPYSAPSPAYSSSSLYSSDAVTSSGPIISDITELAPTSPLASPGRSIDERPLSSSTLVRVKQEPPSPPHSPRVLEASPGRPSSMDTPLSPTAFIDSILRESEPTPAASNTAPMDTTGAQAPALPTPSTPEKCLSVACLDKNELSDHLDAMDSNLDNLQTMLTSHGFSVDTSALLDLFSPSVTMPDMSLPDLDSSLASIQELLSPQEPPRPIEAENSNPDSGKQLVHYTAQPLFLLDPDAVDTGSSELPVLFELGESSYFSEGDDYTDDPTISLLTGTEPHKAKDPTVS
# Melanocortin receptor 4 = Melanocortin receptor 4 (Homo sapiens, UniProt P32245); test: MC4R antagonist potency on cAMP, dose response, cell-based, TR-FRET, biased antagonists (AID 602298); type: functional;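 note: antagonist potency against agonist-stimulated cAMP production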
# [2] = inhibitors of intracellular T. cruzi replication, confirmation, NIH3T3 host cells, beta-gal luminescence (AID 2044); type: functional, cell-based;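 note: intracellular parasites grown in NIH/3T3 mouse fibroblasts as host cells; luminescent beta-galactosidase reporter signal from transgenic T. cruzi replicating inside host cells; inhibitors lower the luminescence signal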
# CHO = test: cytotoxicity in TLR9-MyD88 CHO cells, dose response, cytotoxicity control for TLR9-MyD88 binding inhibitor project, cell-based, luminescence (AID 588339); type: functional, hamster; conditions: Cricetulus griseus;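 note: CHO cells stably coexpressing TLR9 and MyD88 fusions from primary screen; compound exposure lasted 48 hours before viability readout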
# Beta-galactosidase = Beta-galactosidase (Escherichia coli, UniProt Q8VNN2); test: PubChem AID 485352; type: functional
# [3] = HepG2 cell cytotoxicity, dose response, cytotoxicity control, cherry-picks, set 5 (AID 1053118); type: functional, cell-based
# Large T antigen = Large T antigen (Simian virus 40, UniProt P03070); type: functional, Betapolyomavirus macacae;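 note: Confirmatory-stage PubChem screen for compounds that inhibit SV40 T antigen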
# Paired box protein Pax-8 = Paired box protein Pax-8 (Homo sapiens, UniProt Q06710); test: inhibitors of PAX8-driven TPO luciferase reporter, dose response, RMG-I cells, cherry-pick (AID 687027); type: functional, cell-based;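 note: luciferase reporter driven by Pax8 target thyroperoxidase promoter measured by SteadyGlo luminescence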
# [4] = target: T2, Type-1 angiotensin II receptor (Homo sapiens, UniProt P30556); test: AT1 receptor antagonists, dose response, selectivity assay for APJ receptor antagonist project, cell-based, uHTS hits (AID 463214); type: functional;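 note: antagonist potency against angiotensin II stimulated AT1 response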
# T2 sequence (P30556 whole entry): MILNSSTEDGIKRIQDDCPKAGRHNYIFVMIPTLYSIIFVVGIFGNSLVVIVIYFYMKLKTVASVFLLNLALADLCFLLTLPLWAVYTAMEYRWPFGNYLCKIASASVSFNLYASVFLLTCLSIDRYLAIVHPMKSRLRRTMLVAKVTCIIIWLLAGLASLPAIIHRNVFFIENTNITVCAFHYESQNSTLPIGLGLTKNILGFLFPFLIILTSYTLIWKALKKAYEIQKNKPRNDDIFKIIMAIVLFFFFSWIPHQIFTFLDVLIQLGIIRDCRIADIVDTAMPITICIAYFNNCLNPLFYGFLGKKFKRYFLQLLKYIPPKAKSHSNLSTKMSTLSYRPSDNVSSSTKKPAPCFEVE
# [5] = cytotoxicity toward NIH3T3 fibroblasts, dose response, counter-screen, cell-based, ATP luminescence, mouse fibroblasts (AID 2010); type: functional;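 note: cells exposed to compound for about 90 hours before reading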
# [6] = nonselective inhibitors of cellular cAMP signaling, dose response, counter-screen for MC4R biased antagonist project, cell-based, TR-FRET cAMP detection (AID 602305); type: functional;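 note: U2OS cells stimulated with forskolin near its EC80 as the cAMP inducer; potency is for inhibition of forskolin-stimulated cAMP signaling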
# [7] = THP-1 cell cytotoxicity, dose response, cytotoxicity control for non-replicating M. tuberculosis project (AID 489025); type: functional
# Protein RecA = target: T3, Protein RecA (Mycobacterium tuberculosis, UniProt P9WHJ3); test: Fluorescence Cell-Free Homogeneous Dose Retest to Identify Inhibitors of RecA-Intein Splicing Activity. [Related pubchem assays (depositor defined):AID2097, AID2223, AID489010, AID492950]; type: functional
# T3 sequence (P9WHJ3 whole entry): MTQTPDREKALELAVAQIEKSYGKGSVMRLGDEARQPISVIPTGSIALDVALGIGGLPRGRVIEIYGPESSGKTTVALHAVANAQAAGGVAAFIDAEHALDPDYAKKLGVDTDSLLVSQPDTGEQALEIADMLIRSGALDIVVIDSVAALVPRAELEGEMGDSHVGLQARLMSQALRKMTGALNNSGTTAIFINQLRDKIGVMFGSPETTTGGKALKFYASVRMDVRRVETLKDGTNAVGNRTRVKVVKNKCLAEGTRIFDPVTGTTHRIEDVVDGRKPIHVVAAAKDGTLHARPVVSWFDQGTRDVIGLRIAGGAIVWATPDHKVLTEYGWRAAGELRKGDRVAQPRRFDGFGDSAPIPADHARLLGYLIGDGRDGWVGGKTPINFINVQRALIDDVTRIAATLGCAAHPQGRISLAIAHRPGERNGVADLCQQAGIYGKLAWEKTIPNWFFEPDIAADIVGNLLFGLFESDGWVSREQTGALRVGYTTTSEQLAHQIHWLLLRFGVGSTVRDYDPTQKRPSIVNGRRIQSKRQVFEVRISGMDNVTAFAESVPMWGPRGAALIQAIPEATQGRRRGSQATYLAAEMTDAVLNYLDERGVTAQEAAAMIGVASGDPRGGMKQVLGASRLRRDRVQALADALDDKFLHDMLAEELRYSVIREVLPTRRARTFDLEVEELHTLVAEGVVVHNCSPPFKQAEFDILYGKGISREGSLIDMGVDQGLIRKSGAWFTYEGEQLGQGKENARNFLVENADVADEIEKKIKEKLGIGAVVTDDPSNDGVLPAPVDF
# [8] = target: T4, Replicative DNA helicase DnaB (Mycobacterium tuberculosis, UniProt P9WMR3); test: DnaB intein splicing inhibitors, dose response, biochemical, cell-free fluorescence (AID 449749); type: functional
# T4 sequence (P9WMR3 whole entry): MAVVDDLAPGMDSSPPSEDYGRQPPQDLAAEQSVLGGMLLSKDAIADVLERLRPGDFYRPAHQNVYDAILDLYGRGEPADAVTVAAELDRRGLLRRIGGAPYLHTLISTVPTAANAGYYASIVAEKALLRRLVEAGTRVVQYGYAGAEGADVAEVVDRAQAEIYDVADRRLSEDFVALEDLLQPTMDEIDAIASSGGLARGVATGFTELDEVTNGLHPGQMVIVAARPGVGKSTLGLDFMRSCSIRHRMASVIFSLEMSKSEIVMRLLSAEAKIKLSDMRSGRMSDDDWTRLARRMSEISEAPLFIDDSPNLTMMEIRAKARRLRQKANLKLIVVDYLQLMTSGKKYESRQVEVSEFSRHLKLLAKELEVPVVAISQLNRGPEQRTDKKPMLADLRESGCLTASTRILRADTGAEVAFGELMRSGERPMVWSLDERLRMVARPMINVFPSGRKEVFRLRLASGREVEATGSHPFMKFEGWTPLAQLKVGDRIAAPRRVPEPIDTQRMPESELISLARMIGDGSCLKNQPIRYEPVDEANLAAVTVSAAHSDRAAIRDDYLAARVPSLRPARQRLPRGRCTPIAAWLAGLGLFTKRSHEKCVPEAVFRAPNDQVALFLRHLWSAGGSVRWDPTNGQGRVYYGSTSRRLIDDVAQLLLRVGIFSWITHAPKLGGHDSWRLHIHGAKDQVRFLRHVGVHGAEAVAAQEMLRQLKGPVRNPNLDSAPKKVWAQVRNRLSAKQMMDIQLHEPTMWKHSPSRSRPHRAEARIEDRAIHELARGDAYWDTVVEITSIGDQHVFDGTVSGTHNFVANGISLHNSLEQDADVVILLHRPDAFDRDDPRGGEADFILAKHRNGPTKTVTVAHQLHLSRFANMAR
# INS1 = test: beta cell apoptosis inhibitors, cytokine rescue, dose response, luminescence, retest (AID 449756); type: functional, cell-based; conditions: Rattus norvegicus;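 note: cell death triggered by IL-1 beta plus TNF-alpha plus IFN-gamma mixture; protective hits raise ATP signal compared with cytokine alone wells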
# [9] = non-specific cell cytotoxicity, dose response, cytotoxicity control for PAX8 inhibitor project, plate reader, dry powder samples (AID 743021); type: functional, cell-based
# [10] = inhibitors of fibronectin matrix deposition, dose response, AH1F cells, Alexa488-FN fluorescence, cherry-picks (AID 1035475); type: functional, cell-based
# [11] = HEK293 cell cytotoxicity, dose response, cytotoxicity control, cherry-picks, set 5 (AID 1053117); type: functional, cell-based
# Beta Lactamase = Beta Lactamase (Pseudomonas aeruginosa, UniProt Q932Y6); test: beta-lactamase reporter inhibitor potency, dose response, artefact control for TLR9-MyD88 binding inhibitor project, BLA reporter cells, FRET fluorescence (AID 588341); type: cell-based;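 note: cell based assay in CHO-K1 cells stably expressing beta-lactamase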
# [12] = target: Metabotropic glutamate receptor 7 (Homo sapiens, UniProt Q14831); test: mGlu7 positive allosteric modulators, dose response, cell-based, calcium mobilization, Galpha15 (AID 743384); type: functional
# Vero = Vero cell cytotoxicity, cytotoxicity control for flavivirus capping enzyme inhibitors (AID 588742); type: functional; conditions: Chlorocebus sabaeus
# [13] = target: Glutathione-S-transferase (Schistosoma japonicum, UniProt Q26513); test: biotin-GST/anti-GST TR-FRET signal inhibitors, dose response, artefact control for Vif-APOBEC3G degradation inhibitor project, biochemical (AID 1117362); type: functional
# Chain of Glutathione-S-transferase (Q26513 whole entry): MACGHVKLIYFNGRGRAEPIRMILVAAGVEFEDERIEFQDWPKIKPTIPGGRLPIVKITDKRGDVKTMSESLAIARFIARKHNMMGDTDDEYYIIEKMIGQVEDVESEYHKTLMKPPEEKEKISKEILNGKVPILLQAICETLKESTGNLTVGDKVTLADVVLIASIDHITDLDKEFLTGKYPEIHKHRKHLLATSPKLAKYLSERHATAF
# Chain of Metabotropic glutamate receptor 7 (Q14831 whole entry): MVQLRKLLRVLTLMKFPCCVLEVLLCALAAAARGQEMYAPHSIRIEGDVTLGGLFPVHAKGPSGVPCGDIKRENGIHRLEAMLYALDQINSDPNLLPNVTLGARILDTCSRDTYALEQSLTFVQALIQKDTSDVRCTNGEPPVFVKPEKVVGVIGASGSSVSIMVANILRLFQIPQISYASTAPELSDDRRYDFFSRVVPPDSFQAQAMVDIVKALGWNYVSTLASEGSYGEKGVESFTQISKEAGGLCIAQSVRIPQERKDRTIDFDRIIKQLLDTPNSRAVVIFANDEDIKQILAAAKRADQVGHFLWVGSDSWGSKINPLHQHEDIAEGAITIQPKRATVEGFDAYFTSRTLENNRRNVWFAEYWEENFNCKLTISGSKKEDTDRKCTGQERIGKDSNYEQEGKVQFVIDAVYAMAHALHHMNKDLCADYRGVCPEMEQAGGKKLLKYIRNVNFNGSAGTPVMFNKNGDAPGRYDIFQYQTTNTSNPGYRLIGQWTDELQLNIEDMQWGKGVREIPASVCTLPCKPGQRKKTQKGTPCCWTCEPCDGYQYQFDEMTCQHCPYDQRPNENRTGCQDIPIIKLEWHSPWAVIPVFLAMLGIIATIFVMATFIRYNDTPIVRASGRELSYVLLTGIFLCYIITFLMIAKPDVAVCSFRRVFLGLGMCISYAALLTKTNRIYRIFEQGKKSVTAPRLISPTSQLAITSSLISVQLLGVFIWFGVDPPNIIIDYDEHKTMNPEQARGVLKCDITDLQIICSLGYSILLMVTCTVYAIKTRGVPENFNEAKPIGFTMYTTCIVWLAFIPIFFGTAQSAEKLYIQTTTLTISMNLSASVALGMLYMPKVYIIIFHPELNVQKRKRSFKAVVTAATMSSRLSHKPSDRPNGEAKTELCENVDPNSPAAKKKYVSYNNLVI
# Chain of Beta-galactosidase (Q8VNN2 whole entry): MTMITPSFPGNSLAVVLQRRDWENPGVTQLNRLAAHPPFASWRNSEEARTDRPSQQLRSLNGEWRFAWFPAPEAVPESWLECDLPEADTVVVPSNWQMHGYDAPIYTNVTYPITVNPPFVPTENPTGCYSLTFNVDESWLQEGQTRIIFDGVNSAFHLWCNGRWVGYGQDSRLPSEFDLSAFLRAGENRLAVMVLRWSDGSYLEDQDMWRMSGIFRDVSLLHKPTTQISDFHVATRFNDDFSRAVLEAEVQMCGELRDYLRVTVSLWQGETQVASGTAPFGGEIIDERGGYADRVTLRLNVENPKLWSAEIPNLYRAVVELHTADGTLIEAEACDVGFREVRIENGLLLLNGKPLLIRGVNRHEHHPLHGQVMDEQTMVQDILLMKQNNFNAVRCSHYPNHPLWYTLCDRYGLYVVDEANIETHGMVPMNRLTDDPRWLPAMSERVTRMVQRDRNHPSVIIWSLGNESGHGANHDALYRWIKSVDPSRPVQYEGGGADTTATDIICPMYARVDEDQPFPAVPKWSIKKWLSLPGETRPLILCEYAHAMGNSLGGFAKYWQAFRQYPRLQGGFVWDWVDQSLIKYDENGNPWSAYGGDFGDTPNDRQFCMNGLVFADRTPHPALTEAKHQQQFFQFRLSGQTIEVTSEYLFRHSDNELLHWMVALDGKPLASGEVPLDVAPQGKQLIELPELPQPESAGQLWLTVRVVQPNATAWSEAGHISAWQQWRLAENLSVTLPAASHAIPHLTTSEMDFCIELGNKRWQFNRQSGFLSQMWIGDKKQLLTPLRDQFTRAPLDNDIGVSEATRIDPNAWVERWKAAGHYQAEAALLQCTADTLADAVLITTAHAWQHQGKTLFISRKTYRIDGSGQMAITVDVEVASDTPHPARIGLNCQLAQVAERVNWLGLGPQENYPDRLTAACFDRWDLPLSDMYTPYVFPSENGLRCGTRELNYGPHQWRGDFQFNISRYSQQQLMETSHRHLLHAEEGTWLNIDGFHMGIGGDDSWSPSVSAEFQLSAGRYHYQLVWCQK
# Chain of Melanocortin receptor 4 (P32245 whole entry): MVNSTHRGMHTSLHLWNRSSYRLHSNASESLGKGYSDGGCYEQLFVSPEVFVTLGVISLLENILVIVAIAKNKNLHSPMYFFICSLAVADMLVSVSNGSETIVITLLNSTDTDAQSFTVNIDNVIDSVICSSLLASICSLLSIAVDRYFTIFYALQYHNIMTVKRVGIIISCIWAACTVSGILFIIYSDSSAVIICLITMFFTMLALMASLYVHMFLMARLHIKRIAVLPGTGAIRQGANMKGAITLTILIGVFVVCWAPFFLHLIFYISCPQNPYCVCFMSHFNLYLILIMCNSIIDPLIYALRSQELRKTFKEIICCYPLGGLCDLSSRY
# Chain of Large T antigen (P03070 whole entry): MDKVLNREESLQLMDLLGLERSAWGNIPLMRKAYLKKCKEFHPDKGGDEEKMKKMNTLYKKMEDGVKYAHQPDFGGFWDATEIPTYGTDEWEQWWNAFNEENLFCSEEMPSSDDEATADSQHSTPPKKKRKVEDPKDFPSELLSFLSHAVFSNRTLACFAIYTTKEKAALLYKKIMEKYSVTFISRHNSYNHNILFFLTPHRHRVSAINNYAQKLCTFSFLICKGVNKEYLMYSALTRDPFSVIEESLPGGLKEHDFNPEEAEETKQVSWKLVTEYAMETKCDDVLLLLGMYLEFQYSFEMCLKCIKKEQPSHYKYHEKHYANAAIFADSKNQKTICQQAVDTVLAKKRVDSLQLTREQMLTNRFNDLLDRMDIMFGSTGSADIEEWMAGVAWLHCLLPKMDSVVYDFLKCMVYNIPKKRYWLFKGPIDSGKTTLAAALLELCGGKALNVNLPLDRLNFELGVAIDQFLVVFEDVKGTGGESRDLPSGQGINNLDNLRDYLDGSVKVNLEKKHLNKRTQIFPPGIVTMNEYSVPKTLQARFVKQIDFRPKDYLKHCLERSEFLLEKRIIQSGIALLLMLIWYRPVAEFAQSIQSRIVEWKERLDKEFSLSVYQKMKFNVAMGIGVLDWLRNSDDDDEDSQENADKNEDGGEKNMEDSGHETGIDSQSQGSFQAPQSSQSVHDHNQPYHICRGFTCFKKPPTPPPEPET
# Chain of Paired box protein Pax-8 (Q06710 whole entry): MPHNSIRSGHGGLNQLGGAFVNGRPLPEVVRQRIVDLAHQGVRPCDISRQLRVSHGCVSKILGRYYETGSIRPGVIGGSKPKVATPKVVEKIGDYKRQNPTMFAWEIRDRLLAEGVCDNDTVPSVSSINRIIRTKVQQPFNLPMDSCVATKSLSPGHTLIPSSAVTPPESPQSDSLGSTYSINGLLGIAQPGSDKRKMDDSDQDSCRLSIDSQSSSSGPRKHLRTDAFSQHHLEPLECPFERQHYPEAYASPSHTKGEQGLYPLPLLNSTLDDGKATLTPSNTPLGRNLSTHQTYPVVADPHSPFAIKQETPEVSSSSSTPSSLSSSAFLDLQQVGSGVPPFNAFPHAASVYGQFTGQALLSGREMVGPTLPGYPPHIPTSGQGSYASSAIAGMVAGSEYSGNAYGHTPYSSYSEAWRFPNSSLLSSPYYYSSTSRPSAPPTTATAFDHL
# Chain of Beta Lactamase (Q932Y6 whole entry): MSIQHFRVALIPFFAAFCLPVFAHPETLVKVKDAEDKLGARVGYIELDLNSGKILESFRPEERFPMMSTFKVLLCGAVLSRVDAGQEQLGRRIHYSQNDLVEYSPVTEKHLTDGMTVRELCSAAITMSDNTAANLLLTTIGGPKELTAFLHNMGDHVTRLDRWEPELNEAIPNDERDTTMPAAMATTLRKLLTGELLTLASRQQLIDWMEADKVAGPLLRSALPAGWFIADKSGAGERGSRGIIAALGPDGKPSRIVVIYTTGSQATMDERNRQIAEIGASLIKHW
smiles,measurement,setting,value
CCS(=O)(=O)c1ncc(Cl)c(C(=O)Nc2ccc(S(=O)(=O)N3CCC(C)CC3)cc2)n1,EC50,[1],4.04 µM (active)
same,IC50,Melanocortin receptor 4,> 64.6 µM (inactive)
same,EC50,[2],1.72 µM (active)
same,IC50,CHO,1.81 µM (active)
same,EC50,Beta-galactosidase,> 40 µM (inactive)
same,AC50,[3],7.65 µM (active)
same,IC50,Large T antigen,52.5 µM (active)
same,AC50,Paired box protein Pax-8,3.45 µM (active)
same,IC50,[4],6.11 µM (active)
same,EC50,[5],4.05 µM (active)
same,IC50,[6],> 64.6 µM (inactive)
same,CC50,[7],34.7 µM (active)
same,EC50,Protein RecA,889 nM (active)
same,AC50,[8],1.13 µM (active)
same,AC50,INS1,4.66 µM (active)
same,AC50,[9],29.3 µM (active)
same,AC50,[10],5.39 µM (active)
same,AC50,[11],9.52 µM (active)
same,IC50,Beta Lactamase,8.61 µM (active)
CCn1c(C)cc(C(=O)CSc2ccc(NC(C)=O)cc2)c1C,EC50,[12],10 µM (active)
Oc1ccccc1/C=N/c1c(-c2ccco2)nc2ccccn12,CC50,Vero,> 40 µM (active)
same,IC50,[13],> 100 µM (active)
